Values quoted from earlier work as cited in US4477441A, “Renin inhibitors containing a C-terminal disulfide cycle” (Merck & Co., Inc., priority 1983, dated 1984).

Tested on: hog renin
Conditions: nephrectomized rats after injection of hog renin; Gross et al. 1971

Pepstatin
blood pressure in vivo: reduce blood pressure in vivo
